# Experimental data as given in patent US8546147B2, “Imidazo[1,2-α]pyrazin-3(7H)-one derivatives bearing a new electron-rich structure” (Universita degli Studi di Siena, priority 2009, dated 2013).
# Where two headings read alike, the source gives them in different places.
# Tests used:
# [1] = cited from earlier work
# [2] = Chemiluminescence spectrum in DMSO (Shimadzu RF5001PC); format: physicochemical; settings: for max. emission peak of chemiluminescent spectrum: 1-3 μg/mL in DMSO
# Experimental: Chemiluminescence Spectrums.
# Consequently, 10 μL of the stock solution were directly diluted in the quartz cuvette reader of the Fluorescence Spectrophotometer Shimadzu RF5001PC, containing 3 mL of DMSO, to obtain a final sample concentration of 1-3 μg/mL.
# [3] = target: T1, Renilla Luciferase (RLuC) (Renilla reniformis, UniProt P27652)
# T1 sequence (P27652 1-311): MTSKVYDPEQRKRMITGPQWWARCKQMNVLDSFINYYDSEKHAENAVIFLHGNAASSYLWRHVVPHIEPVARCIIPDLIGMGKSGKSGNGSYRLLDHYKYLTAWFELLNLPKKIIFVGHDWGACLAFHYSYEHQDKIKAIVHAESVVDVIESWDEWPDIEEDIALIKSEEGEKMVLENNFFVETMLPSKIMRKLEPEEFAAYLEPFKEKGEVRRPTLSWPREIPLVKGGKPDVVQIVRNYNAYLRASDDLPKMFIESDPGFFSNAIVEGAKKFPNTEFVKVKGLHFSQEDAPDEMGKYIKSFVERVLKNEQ
# Experimental: Bioluminescence Spectrum.
# Bioluminescence was measured according to standard procedures.^40
# [4] = target: T2, RLuC (donor) and Green Fluorescent Protein GFP (acceptor) (Renilla reniformis, UniProt P27652); settings: three different times, FIG. 8-10
# T2 sequence (P27652 1-311): T1 sequence (P27652 1-311)
# [5] = cited from earlier work; remark: listed apart in the source
# RLuc = target: T3, RLuc (Renilla reniformis, UniProt P27652); settings: cited from earlier work
# T3 sequence (P27652 1-311): T1 sequence (P27652 1-311)
# [6] = first line of values, native = 1.00
# [7] = second line of values (line with half-rise time in ms)
Compound,Half-rise Time ([1]; first line of values) [s],"Relative Intensity [1, 6]","Relative Luminescence capacity [1, 6]","Relative Intensity [1, 7]","Relative Luminescence capacity [1, 7]",Half-rise Time ([1]; second line of values) [s],also measured
Coelenterazine n,5,0.01,0.26,0.15,0.25,0.006 to 0.03,–
"O=c1c(Cc2ccccc2)nc2c(Cc3ccccc3)[nH]c(-c3ccccc3)cn1-2 [Compound 23b, 2,8-Dibenzyl-6-phenylimidazo-[1,2-a]pyrazin-3(7H)-one]",–,–,–,–,–,–,max. emission peak of chemiluminescent spectrum [2]: 465 nm
"O=c1c(Cc2ccccc2)nc2c(Cc3ccccc3)[nH]c(-c3ccc4c(c3)OCO4)cn1-2 [Compound 23e, 2,8-Dibenzyl-6-[3,4-(methylendioxy)-phenyl]imidazo-[1,2-a]pirazin-3(7H)-one]",–,–,–,–,–,–,Shifts vs.23b ([3]; 1st measurement): 10.2 nm; Bioluminescent emission max ([3]; 1st measurement of triplicate): 397.6 nm; Shifts vs.23b ([3]; 2nd measurement): 5.5 nm; Bioluminescent emission max ([3]; 2nd measurement of triplicate): 397.5 nm; Shifts vs.23b ([3]; 3d measurement): 5.2 nm; Bioluminescent emission max ([3]; 3d measurement of triplicate): 398.2 nm; emission over time in BRET experiment (in words) [4]: decrease over time
"O=c1c(Cc2ccccc2)nc2c(Sc3ccccc3)[nH]c(-c3ccccc3)cn1-2 [Compound 23f, 2-Benzyl-6-phenyl-8-(phenylthio)imidazo-[1,2-a]pirazin-3(7H)-one]",–,–,–,–,–,–,bioluminescent emission [3]: about 415 nm; shift in respect of compound 23b [3]: about 30 nm; Shifts vs.23b ([3]; 1st measurement): 27.7 nm; Bioluminescent emission max ([3]; 1st measurement of triplicate): 415.1 nm; Shifts vs.23b ([3]; 2nd measurement): 27.4 nm; Bioluminescent emission max ([3]; 2nd measurement of triplicate): 419.4 nm; Shifts vs.23b ([3]; 3d measurement): 31.4 nm; Bioluminescent emission max ([3]; 3d measurement of triplicate): 424.3 nm; kinetic of chemiluminescence (in words) [2]: slower than 23b; max. emission peak of chemiluminescent spectrum [2]: 510 nm; emission shift between chemiluminescent spectrums ([2]; 23f versus 23b): about 45 nm; chemiluminescence intensity (in words) ([2]; compared with 23b): relative lowest intensity; emission over time in BRET experiment (in words) [4]: long lasting
Coelenterazine hcp,0.15 to 0.3,190,0.67,500,0.65,0.002 to 0.005,–
"O=c1c(Cc2ccc(O)cc2)nc2c(Cc3ccccc3)[nH]c(-c3ccc(O)cc3)cn1-2 [Compound 1, coelenterazine]",0.4 to 0.8,1.00,1.00,–,–,0.006 to 0.03,"ΦCl ([5]; chemiluminescence quantum yield): 0.21%; Relative Light Yield ([5]; in brackets, relative to compound 1 (1.0)): 1.0"
Oc1ccc(-c2cn3c(O)c(Cc4ccccc4)nc3c(Cc3ccccc3)n2)cc1 [Coelenterazine h],0.4 to 0.80,10,0.82,16,0.75,0.006 to 0.03,–
"O=c1c(Cc2ccccc2)nc2c(Sc3ccc(Cl)cc3)[nH]c(-c3ccccc3)cn1-2 [Compound 23n, 2-Benzyl-8-(4-chlorophenylthio)-6-phenylimidazo[1,2-a]pyrazin-3(7H)-one]",–,–,–,–,–,–,Chemil. Imax [2]: 505 nm
O=c1c(Cc2ccc(O)cc2)nc2c(CC3CCCC3)[nH]c(-c3ccc(O)cc3)cn1-2 [Coelenterazine cp],0.15 to 0.3,20,0.95,28,0.63,0.005,–
O=c1c(Cc2ccc(F)cc2)nc2c(Cc3ccccc3)[nH]c(-c3ccc(O)cc3)cn1-2 [Coelenterazine f],0.4 to 0.8,18,0.80,20,0.80,0.006 to 0.03,–
O=c1c(Cc2ccc(F)cc2)nc2c(CC3CCCC3)[nH]c(-c3ccc(O)cc3)cn1-2 [Coelenterazine fcp],0.4 to 0.8,135,0.57,–,–,–,–
O=c1c(Cc2ccc(I)cc2)nc2c(Cc3ccccc3)[nH]c(-c3ccc(O)cc3)cn1-2 [Coelenterazine i],8,0.03,0.70,–,–,–,–
Oc1ccc(Cc2nc3c(Cc4ccccc4)nc4c(n3c2O)CCc2cc(O)ccc2-4)cc1 [Coelenterazine e],0.15 to 0.3,4,0.5,–,–,–,–
Coelenterazine ip,1,47,0.54,–,–,–,–
O=c1c(Cc2ccccc2)nc2c(Cc3ccccc3)[nH]c(-c3ccccc3)cn1-2 [Coelenterazine 400a],–,–,–,–,–,–,Rluc emission peak (RLuc): 395 nm
"O=c1c(Cc2ccccc2)nc2c(Sc3ccc(Cl)cc3)[nH]c(-c3ccc(O)cc3)cn1-2 [Compound 23i, 2-Benzyl-8-(4-chlorophenylthio)-6-(4-hydroxyphenyl)imidazo[1,2-a]pyrazin-3(7H)-one]",–,–,–,–,–,–,Biolum. Imax [3]: 510 nm; Chemil. Imax [2]: 505 nm
